Data as given in patent US10105344B2, “Methods of reducing blood lactate concentration” (Stokely-Van Camp, Inc., priority 2010, dated 2018).

What was measured:
C2C12 cells = assay: Muscle cell assay: lactate concentration in C2C12 cells after electrical pulse stimulation; type: cell-based, Mouse
Procedure: Mouse C2C12 myoblasts are purchased from American Type Culture Collection (ATCC; Manassas, Va.) and grown to 90% confluence in high glucose Dubecco's Modified Eagle media (DMEM) with 10% fetal bovine serum (FBS). Myoblasts from the purchased lot are grown in T75 flasks and subcultured >5 times prior to plating in collagen coated six-well plates for experimentation. To induce myotube differentiation FBS containing media is replaced with 2% horse serum containing media or serum free media for 5-7 days. Myoblasts are grown and myotubes are maintained with or without antibiotics in a 37° C., 5% CO2 incubator. Electrical pulsing is applied to the myotubes using a C-Pace EP Cell Culture Stimulator (IonOptix; Milton, Mass.). […] Immediately prior to stimulation, day old media is removed and replaced with 5 ml of fresh differentiation media. For incubation experiments, differentiated myotubes are pre-treated with quercetin and/or other compounds. Approximately 18 hours prior and again immediately before electrical pulse stimulation, DMEM containing 2% horse serum or serum free media is replaced with the same media containing quercetin or other test compounds at varying concentrations. Samples from media from resting and contracted cells (with and without compound incubation) is analyzed enzymatically for lactate with a modified method of Lowry and Passonneau (A Flexible System of Enzymatic Analysis, pages 194-199, Academic Press, INC. 1972 hereby incorporated by reference in its entirety.) The effect of quercetin on lactate concentration of muscle cells subjected to electrical pulse stimulation as generally described in Example 1 and Example 2 was studied. […] Media was changed every 24 hours. After 48 hours, growth media was replaced with AIM 5 differentiation media which was also changed every 24 hours. […] Lactate concentrations were measured with the Enzychrom L-Lactate Kit as follows. […] The optical density (OD0) was read for time “zero” at 565 nm and OD20 after a […] incubation at room temperature.

trained cyclists = assay: Onset of blood lactate accumulation (OBLA) test, incremental cycling exercise; type: in vivo
Procedure: Two tests were performed to determine whether quercetin lowers blood lactate or improves maximal lactate steady state: a VO2PEAK test and an onset of blood lactate accumulation [OBLA] test. These tests were performed in a laboratory maintained at 20-25° C. and 35-40% relative humidity with the participants exercising on a Velotron bicycle trainer (Velotron Pro, RacerMate Inc, Seattle, Wash.) calibrated according to manufacturer's recommendations. VO2PEAK was determined using an incremental multistage cycling protocol: following a 10-min warm-up at 100 W, participants cycled at 150 W for five minutes then power output was increased by 50 W every three minutes until 250 W after which power output was increased by 25 W every minute until volitional exhaustion. Oxygen consumption (VO2) and carbon dioxide production (VCO2) were computed from expiratory gases collected and analyzed with a MOXUS metabolic cart (AEI Technologies, Pittsburgh, Pa.). OBLA was determined on a second occasion, separated from the measurement of VO2PEAK by at least seven days. The participants exercised for 3.5 minute stages at 55, 60, 65, 70, 75, 80, 85, and 90% VO2PEAK, and 3-mL blood samples were collected during the final 30 sec of each stage for measuring blood lactate concentration, OBLA was determined using curve fitting techniques and expressed as a percentage of VO2PEAK. OBLA was determined before and after 28 days of quercetin supplementation (1000 mg/d) contained in a 2% carbohydrate beverage with electrolytes and vitamins C and B3.

O=c1c(O)c(-c2ccc(O)c(O)c2)oc2cc(O)cc(O)c12 [quercetin]
day 5 lactate concentration post stimulus (C2C12 cells; plate C (primed days 3 and 4, quercetin days 3, 4, 5) vs plate A without quercetin, 60 minutes low intensity stimulation (10V/0.5 hz/24 ms), FIG. 5): lower day 5 lactate concentration post stimulus | day 5 lactate concentration post stimulus (C2C12 cells; plate D (primed days 3 and 4, quercetin days 3, 4, 5) vs plate B without quercetin, 60 minutes high intensity stimulation (10V/4 hz/2 ms), FIG. 6): lower day 5 lactate concentration post stimulus | day 5 lactate concentration post stimulus (C2C12 cells; plate E (no priming, quercetin day 5 only) vs plate F without quercetin, 60 minutes high intensity stimulation (10V/4 hz/2 ms), FIG. 7): lower day 5 lactate concentration post stimulus | improvement of the % VO2 Peak where the cyclist achieved a blood lactate concentration of 4 mmol (trained cyclists; after quercetin administration vs before, FIG. 1): about 3% | % VO2 Peak to achieve a 4 mmol blood lactate concentration (trained cyclists; after quercetin administration, about 71% before, FIG. 1): about 73% | cycling power output required to elicit a 4 mmol blood lactate (trained cyclists; endurance cyclists, after 28 days of quercetin administration (1000 mg/d), 244 W before): 250 W | increase in cycling power output required to elicit a 4 mmol blood lactate (trained cyclists; endurance cyclists, before vs after 28 days of quercetin administration (1000 mg/d), FIG. 1): 6 watts (W)
